The values below are quoted from earlier work in US20040029892A1, “Compositions and dosage forms for application in the oral cavity in the treatment of mykoses” (priority 2003, published 2004).

For the series the following is noted: almost insoluble.

For the compound `CCC(C)n1ncn(-c2ccc(N3CCN(c4ccc(OCC5COC(Cn6cncn6)(c6ccc(Cl)cc6Cl)O5)cc4)CC3)cc2)c1=O` (racemic) [itraconazole, (±)-cis-4-[4-[4-[4-[[2-(2,4-dichlorophenyl)-2(1H-1,2,4-triazol-1-yl-methyl)-1,3-dioxolan-4-yl]methoxy]phenyl]-1piperazinyl]phenyl]-2,4-dihydro-2-(1-methylpropyl)-3H-1,2,4-triazol-3-one], the solubility in water entry was “less than 1 μg/ml”.
